Experiment: RP, Thermo Scientific Acclaim RSLC 120 C18, 100 × 2.1 mm, 2.2 µm, 30 °C, 0.2 mL/min, estimated dead time 1.1 min; A: 90% water + 10% methanol + 0.01% formic acid + 5 mM ammonium formate, pH 3.61; B: methanol + 0.01% formic acid + 5 mM ammonium formate, pH 3.61; gradient (min/%B) 0/1 1/1 2/39 13/99.9 15/99.9 15.1/1 20.1/1
Details: stereoisomer not certain
Compound `CNC(C)C(=O)c1ccc(C)c(C)c1` (stereo not drawn) [DMMC (3-4-)] has an LC retention time of 5.23 min. `CC12CCC(=O)C=C1CCC1C2C(O)CC2(C=O)C(C(=O)CO)CCC12` (stereo not drawn) [Aldosterone] showed an LC retention time of 7.78 min. `CC1(C)C(C(=O)OC(C#N)c2cccc(Oc3ccccc3)c2)C1C(Br)C(Br)(Br)Br` (stereo not drawn) [Tralomethrin] gave an LC retention time of 13.6 min. With `CC(=O)OC1C(C)OC(n2cc(F)c(N)nc2=O)C1OC(C)=O` (stereo not drawn) [Cytidine-2' 3'-di-O-acetyl-5'-deoxy-5-fluoro] the LC retention time was 5.06 min. In the case of `CNCC(O)c1cccc(O)c1` (stereo not drawn) [Phenylephrine (broad peak)], the LC retention time was 1.93 min. With `C#CC1(O)CCC2C3CCC4=CC(=O)CCC4C3CCC21CC` (stereo not drawn) [Norgestrel] the LC retention time was 10.2 min. For `CCOC(=O)C(c1ccccc1)N1CCCCC1` (stereo not drawn) [Ethylphenidate], the LC retention time was 5.08 min. `CNC(C)Cc1ccccc1` (stereo not drawn) [Amphetamine-Methyl (methamphetamine)] showed an LC retention time of 4.21 min. With `O=S(=O)(O)NC1CCCCC1` [Cyclamic acid] the LC retention time was 6.99 min. `COC(=O)c1c(Cl)ccc(Cl)c1OC` [Dicamba-methyl] showed an LC retention time of 9.64 min. `O=C1NCCN1CCN1CCC(c2cn(-c3ccc(F)cc3)c3ccc(Cl)cc23)CC1` [Sertindole] showed an LC retention time of 9.26 min. `CCCCCCCCCCCCCC[N+](C)(C)[O-]` [N,N-Dimethyltetradecylamine-N-oxide] showed an LC retention time of 12.6 min. With `CCC1OC(=O)C(C)C(OC2CC(C)(OC)C(O)C(C)O2)C(C)C(OC2OC(C)CC(N(C)C)C2O)C(C)(O)CC(C)C(=O)C(C)C(O)C1(C)O` (stereo not drawn) [Erythromycin] the LC retention time was 8 min. Work on `O=C(O)c1c(Cl)ccc2cc(Cl)cnc12` [Quinclorac] yielded an LC retention time of 4.9 min. For `CC(C)(c1ccc(OCC(O)CCl)cc1)c1ccc(OCC(O)CCl)cc1` (stereo not drawn) [Bisphenol<U+00A0>A bis(3-chloro-2-hydroxypropyl) ether], the LC retention time was 11.4 min. With `Cc1ccc(Cl)c(OCC(O)CNC(C)(C)C)c1` (stereo not drawn) [Bupranolol] the LC retention time was 7.07 min. In the case of `CCCCCn1cc(C(=O)c2cccc3ccccc23)c2c(O)cccc21` [JWH-018-M-4-OH-Ind], the LC retention time was 12.5 min. In the case of `CCCCCn1cc(C(=O)c2ccc(C)c3ccccc23)c2ccccc21` [JWH-122], the LC retention time was 12.9 min. With `CN1CC(=O)N2C(Cc3c([nH]c4ccccc34)C2c2ccc3c(c2)OCO3)C1=O` (stereo not drawn) [Tadalafil] the LC retention time was 8.26 min. With `Cc1ccc(NC(=O)NC(C)(C)c2ccccc2)cc1` [Daimuron (Dymron)] the LC retention time was 9.68 min. Compound `CNCC(O)c1cccc(NS(C)(=O)=O)c1` (stereo not drawn) [Amidephrine] has an LC retention time of 2.54 min. With `CCOCN(C(=O)CCl)c1c(C)cccc1CC` [Acetochlor] the LC retention time was 10.2 min. For `NC(=O)c1cc[n+](CC2=C(C(=O)[O-])N3C(=O)C(NC(=O)Cc4cccs4)C3SC2)cc1` (stereo not drawn) [Cefalonium], the LC retention time was 4.03 min. With `CNCCC(Oc1ccc(C(F)(F)F)cc1)c1ccccc1` (stereo not drawn) [Fluoxetine] the LC retention time was 8.6 min. For `O=c1c(-c2ccc(O)cc2)coc2cc(O)cc(O)c12` [Genistein], the LC retention time was 7.7 min. `Clc1ccc2c(c1)C(c1ccccc1)=NCc1nncn1-2` [Estazolam] gave an LC retention time of 8.14 min. Compound `N=c1nc(N2CCCCC2)cc(N)n1O` [Minoxidil] has an LC retention time of 4.88 min. For `O=C(O)CCCCC1SCC2NC(=O)NC21` (stereo not drawn) [Biotin], the LC retention time was 4.44 min. `CCOP(=O)(NC(C)C)Oc1ccc(SC)c(C)c1` (stereo not drawn) [Fenamiphos] showed an LC retention time of 10.4 min. `CCCC1OC2CC3C4CCC5=CC(=O)C=CC5(C)C4C(O)CC3(C)C2(C(=O)CO)O1` (stereo not drawn) [Budesonide] gave an LC retention time of 10.3 min. Compound `COc1cc(OC)nc(NC(=O)NS(=O)(=O)c2ncccc2OCC(F)(F)F)n1` [Trifloxysulfuron] has an LC retention time of 8.11 min. Work on `CC(C)N(C(=O)CS(=O)(=O)O)c1ccc(F)cc1` [Flufenacet-ESA] yielded an LC retention time of 5.71 min. Work on `CNCCCC12CCC(c3ccccc31)c1ccccc12` [Maprotiline] yielded an LC retention time of 8.08 min. In the case of `CN(C)CCN1c2ccccc2Sc2ccc(Cl)cc21` [Chlorphenethazine], the LC retention time was 8.49 min. `c1coc(-c2nc3ccccc3[nH]2)c1` [Fuberidazole] showed an LC retention time of 6.48 min. `COc1ccc2cc(CCC(C)=O)ccc2c1` [Nabumetone] gave an LC retention time of 9.82 min. In the case of `O=C(c1ccccc1I)c1cn(CCCCCF)c2ccccc12` [AM-694], the LC retention time was 10.5 min. In the case of `COC(=O)c1ccccc1C(=O)c1ccc(OCCN2CCCCC2)cc1` [Pitofenone], the LC retention time was 5.44 min. In the case of `COc1ccc(N)cc1N` [4-Methoxy-1.3-phenylenediamine], the LC retention time was 2.37 min. `CCOc1ccc(C(C)(C)COCc2cccc(Oc3ccccc3)c2)cc1` [Etofenprox] showed an LC retention time of 14.1 min. With `C[N+]1([O-])CCN2c3ccccc3Cc3ccccc3C2C1` (stereo not drawn) [Mianserine-N-oxide] the LC retention time was 7.63 min. Work on `Cn1c(=O)c2c(ncn2CCCNCC(O)c2cc(O)cc(O)c2)n(C)c1=O` (stereo not drawn) [Reproterol] yielded an LC retention time of 3.56 min. With `CCc1cccc2c3c([nH]c12)C(CC)(CC(=O)O)OCC3` (stereo not drawn) [Etodolac] the LC retention time was 10.6 min. `O=C(Nc1ccc(Cl)cc1)Nc1ccc(Cl)c(Cl)c1` [Triclocarban] showed an LC retention time of 12 min. `CC(C)(C)NC(=O)C1CN(Cc2cccnc2)CCN1CC(O)CC(Cc1ccccc1)C(=O)NC1c2ccccc2CC1O` (stereo not drawn) [Indinavir] showed an LC retention time of 9.79 min. `CCN(CC)CCN1c2ccccc2Sc2ccccc21` [Diethazine] showed an LC retention time of 7.76 min. With `COc1ccc(CC(C)N)c(OC)c1OC` (stereo not drawn) [TMA] the LC retention time was 4.16 min. `CCCOP(=O)(OCCC)Oc1ccc(SC)cc1` [Propaphos] gave an LC retention time of 10.8 min. Compound `CC1(C)C(C=CC(=O)OC(C(F)(F)F)C(F)(F)F)C1C(=O)OC(C#N)c1cccc(Oc2ccccc2)c1` (stereo not drawn) [Acrinathrin] has an LC retention time of 9.17 min. With `CS(=O)(=O)c1ccc(C(=O)C2C(=O)CCCC2=O)c(Cl)c1` [Sulcotrione] the LC retention time was 5 min. With `CC(=O)C1(O)CCC2C3CCC4=CC(=O)CCC4(C)C3CCC21C` (stereo not drawn) [17alpha-Hydroxyprogesterone] the LC retention time was 10 min. Work on `Nc1ccc(S(=O)(=O)Nc2cnc3ccccc3n2)cc1` [Sulfaquinoxaline] yielded an LC retention time of 5.81 min. Compound `Cc1cc(C)nc(Nc2ccccc2)n1` [Pyrimethanil] has an LC retention time of 9.44 min. With `COC1C(OC(N)=O)C(O)C(Oc2ccc3c(O)c(NC(=O)c4ccc(O)c(CC=C(C)C)c4)c(=O)oc3c2C)OC1(C)C` (stereo not drawn) [Novobiocin] the LC retention time was 11.2 min. In the case of `CC(=O)Nc1ccc(OCC(O)CNC(C)C)cc1` (stereo not drawn) [Practolol], the LC retention time was 3.34 min. In the case of `COC(=O)c1ccccc1CS(=O)(=O)NC(=O)Nc1nc(OC)cc(OC)n1` [Bensulfuron-methyl], the LC retention time was 8.77 min. Compound `Cc1cnc(C(=O)NCCc2ccc(S(=O)(=O)NC(=O)NC3CCCCC3)cc2)cn1` [Glipizide] has an LC retention time of 8.11 min. `CS(=O)(=O)NC(=O)c1cc(Oc2ccc(C(F)(F)F)cc2Cl)ccc1[N+](=O)[O-]` [Fomesafen] showed an LC retention time of 9.01 min. In the case of `CC(CN1CCN(CCOCCO)CC1)CN1c2ccccc2Sc2ccccc21` (stereo not drawn) [Dixyrazine], the LC retention time was 9.08 min. Work on `COP(=S)(NC(C)C)Oc1ccccc1C(=O)OC(C)C` (stereo not drawn) [Isofenphos-methyl] yielded an LC retention time of 11.7 min. Compound `Oc1ccc(C=Cc2cc(O)cc(O)c2)cc1` [Resveratrol] has an LC retention time of 5.93 min. In the case of `CCC12CCCN3CCc4c(n(c5ccccc45)C(O)(C(=O)OC)C1)C32` (stereo not drawn) [Vincamine], the LC retention time was 5.04 min. With `CC(=O)Nc1ccc(S(=O)(=O)Nc2nccs2)cc1` [Sulfathiazole-N4-Acetyl] the LC retention time was 4.24 min. `CCOP(=O)(OCC)SCCSCC.CCOP(=S)(OCC)OCCSCC` [Demeton] showed an LC retention time of 8.91 min. `C=C(C)C1Cc2c(ccc3c2OC2COc4cc(OC)c(OC)cc4C2C3=O)O1` (stereo not drawn) [Rotenone] showed an LC retention time of 10.5 min. For `COC(=O)C(C)N(C(=O)Cc1ccccc1)c1c(C)cccc1C` (stereo not drawn) [Benalaxyl], the LC retention time was 10.9 min. In the case of `CN1CCN=C(c2ccccc2)c2cc(Cl)ccc21` [Medazepam], the LC retention time was 10.2 min. With `CC[N+]([O-])(CC)CC(=O)Nc1c(C)cccc1C` [Lidocaine-N-oxide] the LC retention time was 5.34 min. For `Cc1ccccc1-n1c(C)nc2ccccc2c1=O` [Methaqualone], the LC retention time was 7.83 min. Work on `CC(C)(C)NCC(O)COc1cccc2c1CCC(=O)N2` (stereo not drawn) [Carteolol] yielded an LC retention time of 3.91 min. `CCC1C2CC3C4N(C)c5ccccc5C45CC(C2C5O)[N+]3(CC(O)CN(CC)CC)C1O` (stereo not drawn) [Detajmium] gave an LC retention time of 4.62 min. Work on `N#Cc1c[nH]cc1-c1cccc(Cl)c1Cl` [Fenpiclonil] yielded an LC retention time of 8.91 min. For `O=C(O)Cn1c(=O)sc2cccc(Cl)c21` [Benazolin], the LC retention time was 5.58 min. `COCCN(C(=O)CCl)c1c(C)cccc1C` [Dimethachlor] gave an LC retention time of 8.58 min. `CC(F)CCCn1cc(C(=O)C2C(C)(C)C2(C)C)c2ccccc21` (stereo not drawn) [XLR-11 Isomer] gave an LC retention time of 11.6 min. With `CCCc1nn(C)c2c(=O)[nH]c(-c3cc(S(=O)(=O)N4CCCCC4)ccc3OCC)nc12` [Sildenafil Norneo] the LC retention time was 10.9 min. In the case of `CN(C)CCCC1(c2ccc(F)cc2)OCc2cc(C#N)ccc21` (stereo not drawn) [Citalopram], the LC retention time was 6.59 min. `COC(=O)c1ccccc1S(=O)(=O)NC(=O)Nc1nc(C)cc(C)n1` [Sulfometuron-methyl] showed an LC retention time of 6.92 min. `CCc1nc(N)nc(N)c1-c1ccc(Cl)cc1` [Pyrimethamine] gave an LC retention time of 5.92 min. For `CCOC(=O)C1=C(C)NC(C)=C(C(=O)OC)C1c1cccc(Cl)c1Cl` (stereo not drawn) [Felodipine], the LC retention time was 11 min. With `O=C(NCCN1CCOCC1)c1ccc(Cl)cc1` [Moclobemide] the LC retention time was 4.98 min. `Clc1cccc(Cl)c1NC1=NCCN1` [Clonidine] showed an LC retention time of 3.83 min. Compound `CC12CCC(=O)C=C1C(O)CC1C2C(O)CC2(C)C1CCC2(O)C(=O)CO` (stereo not drawn) [6-beta-Hydroxycortisol] has an LC retention time of 4.42 min.

From the RepoRT retention time repository (doi:10.1021/acs.analchem.2c02893)
